# From patent US9198890B2, “Compositions and methods for treating and preventing coronary heart disease” (priority 2011, dated 2015)
# “And” between values parts separate entries of the source, which are not always exact repeats. Equal values may be shown once.
# Columns and labels:
# [1] = test system: LDL-C; assay: PROSPER study: lipid (LDL-C, HDL-C, triglyceride) response to Pravastatin 40 mg/day, overall and by SLCO1B1/LXRA genotype; format: in vivo, human; settings: for Adjusted mean percent LDL-cholesterol reduction: mean ± S.D.
# Description: The effect of SNPs at nucleotide positions 388 (e.g. A>G) and 625 (e.g. T>C) of the SLCO1B1 gene and also at nucleotide position −115 (e.g. G>A) of the LXRA gene on responsiveness to Pravastatin in subjects of various genotypes was assessed by analyzing the correlation of different SNP genotypes with the 6 month and 12 month changes in TC and LDL-C levels in treated subjects, as shown below in Table 5. Neither the presence of the LXRA SNP at nucleotide position −115 nor the SLCO1B1 SNP at nucleotide position 388 were associated with lipid lowering. […] The percentage reductions in LDL-C given are for the 6 month time point (Table 5).
# Biochemical and DNA analysis: Total cholesterol (TC), HDL-C, and triglycerides were assessed in subjects after an overnight fast at 6 months, and at 12 months, and LDL-C was calculated by the Friedewald formula, as previously described (Shepherd J et al. (2002) Lancet 360:1623-30). Apolipoprotein B (apoB) was measured only at baseline as described. DNA was isolated from cells from this cohort, and DNA from 5,783 subjects participating in this study was also available. ApoE phenotype was determined on plasma samples by Western blotting, using the method of Havekes et al. in the central laboratory of the Royal Infirmary in Glasgow, Scotland (Havekes L M et al. A rapid micro method for apolipoprotein E phenotyping directly in serum. J Lipid Res (1987) 28:455-63). Subjects were classified according to the presence of apoE2, apoE3, or apoE4 bands on gel blotting (Havekes L M et al. (1987) J Lipid Res 28:455-63).
# DNA analysis was conducted by genotyping two single nucleotide polymorphisms (SNPs) of the SLCO1B1 gene—388A>G (rs2306283) and 511T>C (rs4149056)—using standard methods (e.g. Taq Man® SNPs genotyping assays by Applied Biosystems, Foster City, Calif.). The custom assay identification numbers for these analyses were C—1901697—20 and C—30633906—10, respectively. Additionally, DNA analysis was also conducted by genotyping one SNP of the LXRA gene, rs12221497, and the custom assay identification number for this analysis was C—30887860—10. The end points were ascertained after PCR amplification was performed using standard methods (e.g. an Applied Biosystems 7900 HT Sequence Detection System). Genotypes with quality scores below the 95% threshold were repeated and 5% blinded replicates for genotype determinations were performed. In addition, a total of 119 subjects (˜2.2% of the sample size) who had the apoE4/2 phenotype were excluded from these analyses, as well as 246 subjects who had missing apoE phenotype. These subjects were excluded because apoE phenotype or genotype can affect statin-induced LDL-C lowering response, as well as CHD risk, in an allele dependent manner. For example, subjects carrying the apoE4 allele having the greatest response in terms of LDL-C lowering and the highest CHD risk, however, apoE2 and apoE4 phenotype have opposite effects in this regard.
# Statistical analysis: Observed genotype frequencies were compared with those expected under Hardy-Weinberg equilibrium using a χ2 test. For data analysis, multivariable analysis of covariance (ANCOVA) was performed to detect associations between the lipoprotein levels at baseline as well as changes in response to the treatment with Pravastatin at 6 months and with SLCO1B1 genotypes adjusted for gender, body mass index, age, alcohol, smoking, diabetes, apoE phenotype, and country of origin, since subjects participating in PROSPER were either from Scotland, Ireland, or the Netherlands. […]
# [2] = test system: elderly individuals at risk of vascular disease; assay: PROSPER study: incidence of CHD death or nonfatal MI on trial; format: in vivo, human; settings: for Pravastatin HR, hazards ratio (95% confidence intervals), CHD death or nonfatal MI: Pravastatin group
# Description: Statistical analysis: Observed genotype frequencies were compared with those expected under Hardy-Weinberg equilibrium using a χ2 test. For data analysis, multivariable analysis of covariance (ANCOVA) was performed to detect associations between the lipoprotein levels at baseline as well as changes in response to the treatment with Pravastatin at 6 months and with SLCO1B1 genotypes adjusted for gender, body mass index, age, alcohol, smoking, diabetes, apoE phenotype, and country of origin, since subjects participating in PROSPER were either from Scotland, Ireland, or the Netherlands. Prevalence at baseline of myocardial infarction (MI) and all types of vascular disease (history of angina, claudication, MI, stroke, transient ischemic attack, peripheral arterial disease surgery, or amputation for vascular disease more than 6 months before study entry) at baseline, as well as incidence of primary endpoints (CHD death or nonfatal MI or fatal non-fatal stroke), and all cardiovascular events (primary endpoints and coronary artery bypass grafting, coronary angioplasty, and peripheral artery surgery or angioplasty), were compared between carriers of different SLCO1B1 SNP genotypes using multivariable logistic regression analysis in all subjects and stratified by gender and treatment. All analyses were fully adjusted for age, gender, country, history of vascular disease, body mass index, history of diabetes, as well as history of hypertension, alcohol use, current smoking, and apoE phenotype. To evaluate the modifying effects of genotypes and gender on the response to treatment, gene-treatment and gene-gender interaction terms were added to the regression models. Lewontin's D value was calculated to assess the linkage disequilibrium (LD) between the two SNPs of interest (Lewontin R C. The interaction of selection and linkage. II. Optimum models. Genetics 1964; 50:757-82). There was no interaction between these SNPs and also no interaction between these SNPs and apoE genotype. All analyses were performed using SAS/STAT and SAS/Genetics [including proc haplotype procedure] (SAS Version 9.1, SAS Institute Inc., Cary, N.C.). A two-sided p<0.05 was considered statistically significant.
# [3] = test system: elderly individuals at risk of vascular disease; assay: PROSPER study: adverse events (myalgia, rhabdomyolysis, creatine kinase)
# Source text: In this randomized study with 5,804 subjects, 2,913 subjects received placebo and 2,891 received Pravastatin (three of whom refused medication). […] This adverse event rate was very similar to the placebo group where 116 subjects discontinued medication because of non-fatal adverse events. […] At the 3 month visit there no subjects that had creatine kinase levels >10 the upper limits of normal.
# Study Subjects: The results and the methodology used in the PROspective Study of Pravastatin in the Elderly at Risk (PROSPER) study have been previously described (see e.g., Shepherd J et al. PROspective Study of Pravastatin in the Elderly at Risk. Pravastatin in elderly individuals at risk of vascular disease (PROSPER): a randomized controlled trial. Lancet (2002) 360:1623-30 and Shepherd J et al. The design of a prospective study of Pravastatin in the Elderly at Risk (PROSPER). PROSPER Study Group. PROspective Study of Pravastatin in the Elderly at Risk. Am J Cardiol (1999) 84:1192-97).
# In the present study 2,804 men and 3,000 women between the ages of 70 and 82 with pre-existing vascular disease (n=2,404) or at least one of three major vascular risk factors (diabetes n=575, smoking n=1,433, or hypertension n=3,360) were randomized to Pravastatin 40 mg/day (n=2,891) or placebo (n=2,913) and followed up on for 3.2 years, on average. […] This effect translates into an estimated 30% risk reduction in CHD events over 5 years, which is consistent with other statin trials. […] For subjects that were judged to have good compliance (i.e. taking medication more than 75% of the time), these alterations on the lipid levels were even greater: −34% […], +5% (increased HDL-C), and −13% (decreased triglycerides), respectively. […] Lipid levels were similar at onset of the study in subjects randomized to Pravastatin or placebo.
# [4] = test system: LDL-C; assay: PROSPER study: lipid (LDL-C, HDL-C, triglyceride) response to Pravastatin 40 mg/day, overall and by SLCO1B1/LXRA genotype; format: in vivo, human; settings: mean ± S.D.
# [5] = single oral dose of 40 mg, 32 subjects; cited from earlier work
# [6] = 16 healthy volunteers, multiple-dose; cited from earlier work
# [7] = subjects with good compliance (medication more than 75% of the time)
smiles,measurement,setting,value
"CC[C@H](C)C(=O)O[C@H]1C[C@H](O)C=C2C=C[C@H](C)[C@H](CC[C@@H](O)C[C@@H](O)CC(=O)O)[C@H]21 [Pravastatin, pravastatin]",Adjusted mean percent LDL-cholesterol reduction,"[1]; 6 months, LXRA 115 G > A genotype AA",−37.4 ± 10.9%
same,Adjusted mean percent LDL-cholesterol reduction,"[1]; 6 months, LXRA 115 G > A genotype GA",−36.4 ± 10.7%
same,Adjusted mean percent LDL-cholesterol reduction,"[1]; 6 months, LXRA 115 G > A genotype GG",−36.6 ± 10.7%
same,Adjusted mean percent LDL-cholesterol reduction,"[1]; 6 months, SLCO1B1 388 A > G genotype AA",−36.7 ± 10.5%
same,Adjusted mean percent LDL-cholesterol reduction,"[1]; 6 months, SLCO1B1 388 A > G genotype AG",−36.6 ± 10.7%
same,Adjusted mean percent LDL-cholesterol reduction,"[1]; 6 months, SLCO1B1 388 A > G genotype GG",−36.2 ± 11.6%
same,Adjusted mean percent LDL-cholesterol reduction,"[1]; 12 months, LXRA 115 G > A genotype AA",−35.3 ± 11.2%
same,Adjusted mean percent LDL-cholesterol reduction,"[1]; 12 months, LXRA 115 G > A genotype GA",−35.1 ± 11.6%
same,Adjusted mean percent LDL-cholesterol reduction,"[1]; 12 months, LXRA 115 G > A genotype GG",−35.5 ± 12.1%
same,Adjusted mean percent LDL-cholesterol reduction,"[1]; 12 months, SLCO1B1 388 A > G genotype AA",−35.9 ± 11.2%
same,Adjusted mean percent LDL-cholesterol reduction,"[1]; 12 months, SLCO1B1 388 A > G genotype AG",−35.3 ± 12.3%
same,Adjusted mean percent LDL-cholesterol reduction,"[1]; 12 months, SLCO1B1 388 A > G genotype GG",−34.3 ± 12.8%
same,Adjusted mean percent LDL-cholesterol reduction,"[1]; 12 months, SLCO1B1 625 T > C genotype CC",−31.8 ± 11.7%
same,Adjusted mean percent LDL-cholesterol reduction,"[1]; 12 months, SLCO1B1 625 T > C genotype TC",−34.6 ± 12.5%
same,HDL-C increase versus baseline,[1]; subjects placed on Pravastatin,5%
same,triglycerides decrease versus baseline,[1]; subjects placed on Pravastatin,12%
same,alteration printed as risk reduction for CHD,[1]; [7],−34%
same,decreased triglycerides,[1]; [7],−13%
same,increased HDL-C,[1]; [7],+5%
same,"Pravastatin HR, hazards ratio (95% confidence intervals), CHD death or nonfatal MI",[2]; 388 A > G genotype AA (reference genotype),1
same,"Pravastatin HR, hazards ratio (95% confidence intervals), CHD death or nonfatal MI",[2]; 388 A > G genotype AG versus AA,1.13
same,"Pravastatin HR, hazards ratio (95% confidence intervals), CHD death or nonfatal MI",[2]; 388 A > G genotype GG versus AA,1.12
same,"Pravastatin HR, hazards ratio (95% confidence intervals), CHD death or nonfatal MI",[2]; 625 T > C genotype CC versus TT,0.64
same,"Pravastatin HR, hazards ratio (95% confidence intervals), CHD death or nonfatal MI",[2]; 625 T > C genotype TC versus TT,0.99
same,"Pravastatin HR, hazards ratio (95% confidence intervals), CHD death or nonfatal MI",[2]; 625 T > C genotype TT (reference genotype),1
same,estimated risk reduction in CHD events,"[2]; over 5 years, translated from the 3.2 year effect",30%
same,reported cases of myalgia,"[3]; both, human, in vivo, 3.2 years",36 cases
same,association of the SLCO1B1 rs4149056 SNP with myalgia,[3]; in vivo,no association
same,reported cases of rhabdomyolysis,[3]; in vivo,no reported cases
same,subjects who discontinued medication because of non-fatal adverse events,"[3]; of 2,888 subjects started on Pravastatin, 116 in placebo group",107 subjects
same,Adjusted mean percent LDL-cholesterol reduction,"[4]; 6 months, SLCO1B1 625 T > C genotype CC, Pravastatin 40 mg/day",−31.8% and −31.8 ± 12.8%
same,Adjusted mean percent LDL-cholesterol reduction,"[4]; 6 months, SLCO1B1 625 T > C genotype TC, Pravastatin 40 mg/day",−36.0% and −36.0 ± 10.4%
same,Adjusted mean percent LDL-cholesterol reduction,"[4]; 6 months, SLCO1B1 625 T > C genotype TT, Pravastatin 40 mg/day",−37.0% and −37.0 ± 10.8%
same,Adjusted mean percent LDL-cholesterol reduction,"[4]; 12 months, SLCO1B1 625 T > C genotype TT",−35.9 ± 11.8%
same,"areas under the curve of pravastatin blood levels, CC versus wildtype TT SLCO1B1 genotype",[5],significantly greater
same,plasma pravastatin levels with SLCO1B1 haplotype as compared to other haplotypes,[6],doubling
